Reference: patent publication USRE49444E1, “Method of treating osteoporosis comprising administration of PTHrP analog” (priority 2006, dated 2023)
Where two headings read alike, the source gives them in different places.

Key:
[1] = system: Bacteria and Yeasts/moulds; assay: Preservative effectiveness test (European Pharmacopoeia 5.1.3), overall result; format: cell-based; conditions: for preservative efficacy: after 3 and 4.5 months storage; for Preservative effectiveness test Results: after manufacturing
Protocol: (§1) Solutions were prepared at room temperature, by dissolution of the various ingredients in water for injection, with stirring over <30 minutes to ensure complete dissolution, Solutions were filtered through 0.2 micron filter and filled into glass vials, to which a rubber stopper was applied and crimped in place to ensure complete closure.
The solutions were then stored for up to 3 months at 25° C., and up to 4.5 months at 5° C. and the preservative effectiveness test repeated. as described in Example 5.

Staphylococcus aureus = assay: Preservative effectiveness test, plate-count method; format: cell-based; conditions: after 3 and 4.5 months storage
[2] = human, in vivo
Protocol: (§3) A randomized, double-blind, placebo-controlled, multiple-dose design study of Glu^22,25, Leu^23,28,31, Aib^29, Lys^263]hPTHrP(1-34)NH2 (SEQ ID NO.: 2) was conducted at 2 sites. A total of 39 eligible subjects were sequentially enrolled into 1 of 4 study groups consisting of 10 subjects each, with the exception of Group 2, which had 9 subjects. Within each study group, 8 subjects were randomly assigned to receive SEQ ID NO.: 2 and 2 subjects were randomly assigned to receive placebo (In Group 2 only, 1 subject received placebo). All subjects in the study were judged by the investigator to be healthy, normal volunteers. The test products were Glu^22,25, Leu^23,28,31, Aib^29, Lys^26,30]hPTHrP(1-34)NH2 (SEQ ID NO.: 2) (0.1 mg/vial) and Placebo (0.9% sodium chloride injection, USP). All subjects received a single subcutaneous (SC) dose of Glu^22,25, Leu^23,28,31, Aib^29, Lys^26,30]hPTHrP(1-34)NH2 (SEQ ID NO.: 2) or placebo for 7 days.
(§4) Criteria for Evaluation: Pharmacokinetics: PK sampling for plasma SEQ ID NO.: 2 on Days 1 and 7 was performed at the following time points: Predose (0 hour), 0.25, 0.5, 1, 1.5, 2, 3, 4, 6, 8, 12, and 24 hours postdose. Additionally, predose samples were taken for trough drug analysis on Days 3 to 6. The following PK parameters were computed for Days 1 and 7: AUC(0-t), AUC(0-∞) (Day 1 only), AUC(0-τ), AUCR (Day 1 only), Cmax, Tmax, Tlast, CL/F, Kel, t1/2, and AI (Day 7 only). These parameters were calculated from the overall (24 hours) plasma concentration-versus-time profiles by noncompartmental methods using WinNonlin® Pro Version 5.01 and SAS® Version 8.2. Moreover, the ln-transformed PK parameters Cmax, AUC(0-t), AUC(0-τ), and AUC(0-∞) are presented.
(§5) Plasma concentration and PK parameters for SEQ ID NO.: 2 were listed by subject and summarized by treatment and day using descriptive statistics (mean, standard deviation [SD], coefficient of variation [CV %], standard error of the mean [SEM], sample size [N], minimum [min], maximum [max], and median). Additionally, geometric means and ln-transformed values were provided for Cmax and AUCs. Dose proportionality was evaluated for Days 1 and 7 SEQ ID NO.: 2 data using the following power model: Ln(Y)=β0+β Ln Dose+ε where Y represents the PK parameters AUC(0-28), AUC(0-τ), AUC(0-t), and Cmax. Dose proportionality requires that β=1 for dose-dependent parameters.
(§6) The model was used to calculate the 95% confidence intervals (CI) for the slope of the ln-transformed PK parameters AUCs and Cmax. Dose proportionally was concluded if the 95% CI for the PK parameters included the value of 1.
(§7) For those cases in which dose proportionality could not be concluded within all doses investigated, dose proportionality analysis was performed for the first 3 (by excluding the highest dose) and the last 3 doses (by excluding the lowest dose).

[3] = Chemical stability of different formulations (SEQ ID NO.: 2 content); format: physicochemical; conditions: Table 6 formulations
Protocol: as §1
Table 6 details the chemical stability of the formulations described in Example 4.

[4] = system: serum PD markers (total and ionized calcium, phosphorus, PTH(1-84), 1,25-dihydroxyvitamin D, P1NP, CTX); format: in vivo, human
Excerpt: Predose Days: Days −30 and −2
PTH(1-84) and 1,25-dihydroxyvitamin D (vitamin D):
Procollagen Type 1 N-Propeptide (P1NP) and C-Telopeptide
Predose (Day −2), Days 3, 8, and 14.
(§2) The data for each PD marker in serum (total and ionized calcium, phosphorus, PTH(1-84), 1,25-dihydroxyvitamin D, P1NP, and CTX) and in urine (calcium, phosphorus, c-AMP, and creatinine) following SEQ ID NO.: 2 and placebo doses were listed for each subject and summarized by SEQ ID NO.: 2 dose using descriptive statistics (mean, SD, CV %, SEM, N, min, max, and median).

[5] = system: urine PD markers (calcium, phosphorus, c-AMP, creatinine); assay: Clinical study: pharmacodynamic markers in urine; format: in vivo, human
Protocol: Urine PD Samples (Calcium Phosphorus Cyclic AMP [c-AMP], and Creatinine) were Obtained at the Following Time Points:
Day −1/Day 1: −24 to −18 hours, −18 to −12 hours, and −12 hours to 0 hours.
Days 1 and 7: 0 to 6 hours, 6 to 12 hours, and 12 to 24 hours.
The following parameters in urine were presented for each of the PD markers using SAS® Version 8.2: Volume (Vol.), concentration (Conc.), amount (Ae), cumulative amount (Cum. Ae), and excretion rates.
as §2

clinical = conditions: human, in vivo; for AUC: AUC0-tau
Protocol: as §3, §4, §5, §6, §7

OCc1ccccc1 [Benzyl Alcohol]
preservative efficacy [1]: not compliant
Preservative effectiveness test Results [1]: compliant
rate of kill against S Aureus (Staphylococcus aureus): insufficient rate of kill

Oc1ccccc1 [Phenol]
preservative efficacy [1]: maintained
Preservative effectiveness test Results [1]: compliant

CC[C@H](C)[C@H](NC(=O)[C@H](CO)NC(=O)[C@H](CCCCN)NC(=O)CNC(=O)[C@H](CCCCN)NC(=O)[C@H](CC(=O)O)NC(=O)[C@H](Cc1cnc[nH]1)NC(=O)[C@H](CC(C)C)NC(=O)[C@H](CC(C)C)NC(=O)[C@H](CCC(N)=O)NC(=O)[C@H](Cc1cnc[nH]1)NC(=O)[C@H](CCC(=O)O)NC(=O)[C@H](CO)NC(=O)[C@@H](NC(=O)[C@H](C)N)C(C)C)C(=O)N[C@@H](CCC(N)=O)C(=O)N[C@@H](CC(=O)O)C(=O)N[C@@H](CC(C)C)C(=O)N[C@@H](CCCNC(=N)N)C(=O)N[C@@H](CCCNC(=N)N)C(=O)N[C@@H](CCCNC(=N)N)C(=O)N[C@@H](CCC(=O)O)C(=O)N[C@@H](CC(C)C)C(=O)N[C@@H](CC(C)C)C(=O)N[C@@H](CCC(=O)O)C(=O)N[C@@H](CCCCN)C(=O)N[C@@H](CC(C)C)C(=O)N[C@@H](CC(C)C)C(=O)NC(C)(C)C(=O)N[C@@H](CCCCN)C(=O)N[C@@H](CC(C)C)C(=O)N[C@@H](Cc1cnc[nH]1)C(=O)N[C@H](C(=O)N[C@@H](C)C(N)=O)[C@@H](C)O [SEQ ID NO.: 2, [Glu^22,25, Leu^23,28,31, Aib^29, Lys^26,30]hPTHrP(1-34)NH2]
Apparent clearance ([2]; 80 ug): 82.74 to 103.9 L/h
Dose proportionality Slope, AUC (0-inf) ([2]; 80 ug): 0.9957
Dose proportionality Slope, AUC (0-t) ([2]; 80 ug): 0.9071
Dose proportionality Slope, AUC (0-tau) ([2]; 80 ug): 1.141
increases in PK parameters Cmax, AUC(0-f), AUC(0-τ), AUC(0-∞) with dose ([2]; 80 ug): dose-proportional
AUC0-t ([2]; sc, 5 ug): 0.080704 ± 0.030441 ng·h/mL
AUCR ([2]; sc, 5 ug): 0.521 ± 0.111
CL/F ([2]; sc, 5 ug): 28.56 L/h
Cmax ([2]; sc, 5 ug): 0.0408 ± 0.00763 ng/mL
Tmax ([2]; sc, 5 ug): 1.05 (0.514, 1.53) hr
ln (AUC0-inf) ([2]; sc, 5 ug): 5.200 ± 0.3016
ln (AUC0-tau) ([2]; sc, 5 ug): 5.198 ± 0.3007
AUC0-t ([2]; sc, 20 ug): 0.17158 ± 0.082031 ng·h/mL
AUC0-tau ([2]; sc, 20 ug): 0.2282 ± 0.095154 ng·h/mL
AUCR ([2]; sc, 20 ug): 0.828 ± 0.0449
CL/F ([2]; sc, 20 ug): 103.9 ± 53.01 L/h
Cmax ([2]; sc, 20 ug): 0.109 ± 0.0192 ng/mL
Tmax ([2]; sc, 20 ug): 0.512 (0.250, 3.05) hr
ln (AUC0-inf) ([2]; sc, 20 ug): 5.456 ± 0.4957
t1/2 ([2]; sc, 20 ug): 1.05 ± 0.244 h
AUC0-t ([2]; sc, 40 ug): 0.40798 ± 0.2197 ng·h/mL
AUC0-tau ([2]; sc, 40 ug): 0.48188 ± 0.22619 ng·h/mL
AUCR ([2]; sc, 40 ug): 0.838 ± 0.0703
CL/F ([2]; sc, 40 ug): 102.0 ± 53.34 L/h
Cmax ([2]; sc, 40 ug): 0.207 ± 0.0777 ng/mL
Tmax ([2]; sc, 40 ug): 0.492 (0.349, 1.00) hr
ln (AUC0-inf) ([2]; sc, 40 ug): 6.280 ± 0.5203
t1/2 ([2]; sc, 40 ug): 1.43 ± 0.397 h
AUC0-t ([2]; sc, 80 ug): 1.003 ± 0.38345 ng·h/mL
AUC0-tau ([2]; sc, 80 ug): 1.0803 ± 0.40857 ng·h/mL
AUCR ([2]; sc, 80 ug): 0.892 ± 0.0369
CL/F ([2]; sc, 80 ug): 82.74 ± 26.95 L/h
Cmax ([2]; sc, 80 ug): 0.436 ± 0.0688 ng/mL
Tmax ([2]; sc, 80 ug): 0.507 (0.500, 1.00) hr
ln (AUC0-inf) ([2]; sc, 80 ug): 6.855 ± 0.5063
t1/2 ([2]; sc, 80 ug): 1.69 ± 0.425 h
solution stability, influence of the preservative [3]: not significantly influenced by the preservative selected
P1NP concentrations in serum, maximum increase above baseline ([4]; 80 μg dose, Days 3, 8, and 14): up to 18±12 ng/mL
1,25-dihydroxyvitamin D concentrations in serum ([4]; 40 and 80 μg doses, after 2 hours postdose on Day 1 and most of the time on Day 7): steadily rose above the predose levels
serum phosphorus concentrations versus placebo ([4]; Days 1 and 7): below the placebo concentration levels
Serum PTH (1-84) concentrations ([4]; Days 1 and 7, during most of the sampling times): remained below the predose levels and placebo dose
Total calcium concentrations in serum versus reference range ([4]; human, in vivo): remained within the reference range
mean urinary excretion rates of calcium ([5]; Day 1): approximately at predose levels
Mean urinary excretion rates of c-AMP ([5]; Days 1 and 7): increased
Mean urinary excretion rates of creatinine ([5]; Days 1 and 7): fluctuated around the predose levels
Mean urinary excretion rates of phosphorus ([5]; Days 1 and 7): fluctuated around the predose levels
half-life (clinical; mean t1/2): 1.05 to 2.59 h
AUC(0-inf) (clinical; sc, 5 ug): 0.187 ± 0.0545 ng·h/mL
AUC0-t (clinical; sc, 5 ug): 0.0784 ± 0.0455 ng·h/mL
AUC (clinical; sc, 5 ug): 0.187 ± 0.0544 ng·h/mL
CL/F (clinical; sc, 5 ug): 476 mL/min
Cmax (clinical; sc, 5 ug): 0.0431 ± 0.0107 ng/mL
Tmax (clinical; sc, 5 ug): 0.566 h
half-life (clinical; sc, 5 ug, t1/2): 2.59 ± 0.69 h
AUC(0-inf) (clinical; sc, 20 ug): 0.257 ± 0.119 ng·h/mL
AUC0-t (clinical; sc, 20 ug): 0.161 ± 0.111 ng·h/mL
AUC (clinical; sc, 20 ug): 0.257 ± 0.119 ng·h/mL
CL/F (clinical; sc, 20 ug): 1570 mL/min
Cmax (clinical; sc, 20 ug): 0.115 ± 0.0539 ng/mL
Tmax (clinical; sc, 20 ug): 0.296 h
half-life (clinical; sc, 20 ug, t1/2): 1.05 ± 0.314 h
AUC(0-inf) (clinical; sc, 40 ug): 0.593 ± 0.281 ng·h/mL
AUC0-t (clinical; sc, 40 ug): 0.42 ± 0.275 ng·h/mL
AUC (clinical; sc, 40 ug): 0.593 ± 0.281 ng·h/mL
CL/F (clinical; sc, 40 ug): 1400 mL/min
Cmax (clinical; sc, 40 ug): 0.223 ± 0.099 ng/mL
Tmax (clinical; sc, 40 ug): 0.494 h
half-life (clinical; sc, 40 ug, t1/2): 1.65 ± 0.254 h
AUC(0-inf) (clinical; sc, 80 ug): 1.06 ± 0.514 ng·h/mL
AUC0-t (clinical; sc, 80 ug): 0.95 ± 0.494 ng·h/mL
AUC (clinical; sc, 80 ug): 1.05 ± 0.511 ng·h/mL
CL/F (clinical; sc, 80 ug): 1580 mL/min
Cmax (clinical; sc, 80 ug): 0.31 ± 0.0543 ng/mL
Tmax (clinical; sc, 80 ug): 0.752 h
half-life (clinical; sc, 80 ug, t1/2): 2.3 ± 0.715 h
